Laboratory results published in US12310967B2, “Compositions and methods of treatment for neurological disorders comprising motor neuron diseases” (Gliapharm SA, priority 2017, dated 2025).
Structures can show the parent of a compound that is named as a salt.

Experiments:
Type in all cases: cell-based, mouse
primary astrocytes [1] = assay: High throughput screening (HTS) for lactate secretion: acidification of extracellular medium (SNARF5); set-up: key to Score / HTS Score (SNARF5) / Score_SNARF: fraction of plate positive-control activity (1 = 100%); details: Appendix I, primary screening confirmation (SNARF5)
Experimental: Primary cultures of cerebrocortical astrocytes were obtained from 1-2-day-old OF1 mouse pups (Charles River Laboratories). Briefly, cortices were isolated and minced in small pieces under a dissecting microscope. The cells were incubated for 30 min at 37° C. in a solution containing 20 U/ml of papain enzyme (Worthington Biochemical), L-cysteine 1 mM (Sigma), and 10 kU/ml DNase I (Worthington Biochemical) for an enzymatic dissociation. Papain activity was stopped by the addition of fetal calf serum (FCS) to the solution, and a single-cell suspension was then obtained by mechanical dissociation, which consisted in cells trituration in a DMEM (D7777, Sigma-Aldrich) medium (supplemented with 44 mm NaHCO3, and 10 ml/L antibiotic/antimycotic solution) containing 10% FCS. The cells were seeded at an average density of 6×10^4 cells/cm^2 in poly-D-lysine-coated 96, 12 or 6-well culture plates, depending on their use, and incubated at 37° C. in a humidified atmosphere containing 5% CO2/95% air. Culture medium was renewed twice per week. Cells were stimulated and harvested between DIV14 and DIV17, when confluence and cell growth were optimal.
Secretion of lactate in a high-throughput screening (HTS) fashion was measured indirectly through the acidification of extracellular medium. To this end, primary astrocytes grown in 96-well plates for 17 days were stimulated with the compounds as listed herein.
After washing the cells twice with stimulation medium (DMEM (D5030, Sigma), 3 mM NaHCO3 and 5 mM Glucose) at 37° C., cells were stimulated with the compounds at a final concentration of 10 uM (1% DMSO final) in 50 ul per well of stimulation medium supplemented with 10 uM of the extracellular pH sensor SNARF-5F %-(AND-6)-CAR (Life Technologies Corporation). Each compound was tested in two different plates for duplicates.
After 90 min stimulation, fluorescence was read at exc. (excitation) 480 nm/emm. (emission) 580 nm and at exc 480 nm/emm. 630 nm. The ratio of fluorescence between 630 nm and 580 emission values, which represents extracellular pH, was calculated.
In each plate, 8 wells were used for negative controls (DMSO) and 8 wells were used for positive controls (CCCP 2 uM in DMSO). Z prime values were calculated for each of the plates tested and values<0 were discarded.
The average and SD of compounds' values tested in duplicates were calculated, and compound was noted as HIT when the difference between compound's average and negative control's average was greater than three times the sum of compound's SD and negative controls' SD. Only scores greater than 40% were considered as lead Hits for the CDC54K library; for the remaining libraries, all hits were considered. Scores are calculated as the % of activity compared to the positive control in each plate (which is 100%).
Primary screening hits were cherry picked on new plates and confirmed for SNARF5 effect, after having discarded those compounds that are fluorescent (exc. 480 nm/emm. 580 nm or 630 nm) before stimulation. Extracellular medium was next analyzed for extracellular lactate quantification for secondary screening.
Identification of lactate-enhancing drugs with high throughput screening (HTS) experiments on astrocytes primary cultures using extracellular pH dye (SNARF5F 5-(and-6)-carboxylic acid) for 90 min. The procedure is described in Material and Methods (2. Cell culture, 2.1. HTS for lactate secretion and 2.2. Extracellular lactate quantification).
The procedure was performed as follows: • Primary screening: acidification of the extracellular medium • Primary screening confirmation: acidification of the extracellular medium, removal of compounds with fluorescent activity at exc. 480 nm/emm. 580 nm or 630 n. • Secondary screening: dosage of extracellular lactate

primary astrocytes [2] = assay: Extracellular lactate quantification; details: for Score_LACTATE: Appendix I, secondary screening: extracellular lactate
Experimental: Secretion of L-lactate was determined in the extracellular medium of 96-well plated astrocytes after 90 min stimulation (at 37° C., in 5% CO2/95% air conditions) with the drug of interest. The stimulation medium was composed of D5030 medium (completed with D-glucose 5 mM and 44 mM sodium bicarbonate) for 90 min in concentrations ranging from 0 to 100 μM.
Briefly, 200 μl of a Glycine (Sigma)-Semicarbazide (Acros) 0.2M pH 10 buffer containing 3 mM NAD (Roche) and LDH 14 U/ml (Roche) was added to each well of a 96-well plate containing 30 μl aliquots complemented with 20 μl fresh complete D5030 medium. Samples were incubated at 37° C. for 1 h. After samples cooled down at room temperature, the fluorescence intensity (340 nm excitation/450 nm emission) that represents the amount of NADH produced was measured, and lactate concentration values were determined from a standard curve of L-lactate.
(§1) Statistical analysis consisted in ANOVA followed by Fisher LSD post-hoc test for pair-wise comparisons.
Levels of lactate secreted by astrocytes were measured in the extracellular medium at 90 min after stimulation with hits (molecules) from the CDC54K library.

primary astrocytes [3] = assay: Intracellular glycogen quantification; details: Prestwick hits, 10 μM, 3 h
Experimental: For glycogen dosage, a protein dosage was first performed in order to assess whether harvested astrocytes from primary cell cultures yielded enough and equivalent amounts of proteins comparing each replicate, and to ensure that the obtained differences in glycogen quantities were due to drug action and not to inner protein quantities.
Astrocytes used for these dosages were previously grown in 6-well plates for 17 days and stimulated with Vehicle (DMSO) or drug of interest (1 μM to 100 μM) for 180 min, at 37° C. 5% CO2/95% air in D5030 complete medium. Medium was removed and replaced with 600 μl of 30 mM Tris HCl, and stored at −20° C.
Proteins were dosed using the micro BCA Protein Assay kit (Thermo Scientific), as described in the manufacturer's instructions. Briefly, thawed cells were sonicated and 5 μl aliquots were placed in a transparent 96-well plate, to which we added 25 μl 30 mM Tris HCl, 70 μl H2O and 100 μl of a BCA mix (made as described in manufacturer's guidelines). After a 120 min-incubation at 37° C., absorbance was measured with Safire 2 spectrophotometer at a wavelength of 562 nm, and protein quantities were determined from a standard curve of Bovine Serum Albumin (BSA).
Glycogen was quantified using a 250 μl-aliquot of the same stimulated, thawed, and sonicated cells. After an incubation period of 30 min at 90° C. and 400 rpm, 28 μl of an acetic acid/sodium acetate (both from Sigma) 0.1M pH 4.6 buffer was added to each aliquot, which was then separated in two. Each split aliquot received whether 5 μl of amyloglucosidase (Roche) or 5 μl H2O, and all cell solutions were incubated for 120 min in a shaking 37° C.-waterbath. After a centrifugation at 16'000G for 5 min, 20 μl of supernatant were placed 96-well plate, to which 150 μl of a mix containing 0.67 mM ATP (Roche), 0.67 mM NADP (Roche), 1.8% hexokinase/glucose-6-phosphate dehydrogenase (Roche) and 0.1M Tris Buffer-HCl/3.3 mM magnesium (Fluka)/pH 8.1 buffer was added. Fluorescence was measured with Safire 2 spectrophotometer (340 nm excitation/440 nm emission). Glycogen concentration was obtained by substracting glucose value of samples with amyloglucosidase to samples without amyloglucosidase, and were expressed relative to the amount of proteins previously determined.
Levels of intracellular glycogen in astrocytes were measured at 3 h after stimulation with 20 Hits from the Prestwick library (10 μM each), as shown in FIG. 2. n=6-10; Ctrl pos. is glutamate (0.5 mM). Statistical analysis consisted in ANOVA followed by Fisher LSD post-hoc test for pair-wise comparisons.
as §1

SMILES: COc1ccc(C2(O)C[N+](c3ccccc3C)=C3CCCCCN32)cc1OC (stereo not drawn) [K404-0906]
- Score_SNARF (primary astrocytes [1]): 0
- Score_LACTATE (primary astrocytes [2]): 0

SMILES: O=C(COc1ccc(Cl)cc1)N1CCN(Cc2ccc3c(c2)OCO3)CC1 [Fipexide hydrochloride]
- Glycogen (statistical significance of glycogen degradation) (primary astrocytes [3]): ns

SMILES: O=S(=O)(NC1CCCC1)c1cc(-c2noc(C3CCC3)n2)cs1 [L287-1221]
- Score_SNARF (primary astrocytes [1]): 0.5995
- Score_LACTATE (primary astrocytes [2]): 0.6602

SMILES: COc1ccccc1Nc1nc(N2CCOCC2)c2ccccc2n1 [F3007-0009]
- Score_SNARF (primary astrocytes [1]): 0
- Score_LACTATE (primary astrocytes [2]): 0

SMILES: Cc1ccccc1NS(=O)(=O)c1ccc2onc(C(=O)N3CCCCC3)c2c1 [L995-0405]
- Score_SNARF (primary astrocytes [1]): 0.3724
- Score_LACTATE (primary astrocytes [2]): 0

SMILES: Cc1ccsc1C(=O)NC1CCN(c2ncnc3c2CCC3)C1 (stereo not drawn) [T636-1114]
- Score_SNARF (primary astrocytes [1]): 0.6238
- Score_LACTATE (primary astrocytes [2]): 0.5477

SMILES: CCNC(=O)C1CCCN(c2ncnc3oc(C)c(C)c23)C1 (stereo not drawn) [F228-0534]
- Score_SNARF (primary astrocytes [1]): 0.5203
- Score_LACTATE (primary astrocytes [2]): 0.3387

SMILES: COc1ccc(OC)c([N+]2=C3CCCCCN3C(O)(c3ccc(C)cc3)C2)c1 (stereo not drawn) [K404-0855]
- Score_SNARF (primary astrocytes [1]): 0.4944
- Score_LACTATE (primary astrocytes [2]): 0.6277

SMILES: Cc1cccc([N+]2=C3SCCCN3C(O)(c3ccc(F)cc3)C2)c1 (stereo not drawn) [K404-0394]
- Score_SNARF (primary astrocytes [1]): 0.3309
- Score_LACTATE (primary astrocytes [2]): 0.4429

SMILES: O=C(c1noc2ccc(S(=O)(=O)Nc3cccc(F)c3)cc12)N1CCCC1 [L995-0058]
- Score_SNARF (primary astrocytes [1]): 0.4197
- Score_LACTATE (primary astrocytes [2]): 0.424

SMILES: COc1ccc(C2SCCN2S(=O)(=O)c2ccc(C)c(C)c2)cc1OC (stereo not drawn) [F1462-0491]
- Score_SNARF (primary astrocytes [1]): 0
- Score_LACTATE (primary astrocytes [2]): 0

SMILES: Cc1oc2ncnc(N3CCCC(C(=O)NCc4ccccn4)C3)c2c1C (stereo not drawn) [F228-0350]
- Score_SNARF (primary astrocytes [1]): 1.011
- Score_LACTATE (primary astrocytes [2]): 1.023

SMILES: CC(Nc1ncnc2sccc12)c1ccccn1 (stereo not drawn) [T5672380]
- Score_SNARF (primary astrocytes [1]): 0.7508
- Score_LACTATE (primary astrocytes [2]): 0.5883
- Score Lact. (primary astrocytes [2]; Appendix II, CDC54K library): 0.58

SMILES: Cn1nccc1-c1csc(S(=O)(=O)Nc2ccc(F)cc2)c1 [L924-0760]
- Score_SNARF (primary astrocytes [1]): 0.7695
- Score_LACTATE (primary astrocytes [2]): 0.7898

SMILES: CC1c2ccsc2CCN1c1ncnc2sccc12 (stereo not drawn) [T5630309]
- Score_SNARF (primary astrocytes [1]): 0.4816
- Score_LACTATE (primary astrocytes [2]): 0.7

SMILES: O=c1n(CCCN2CCN(c3cccc(Cl)c3)CC2)nc2ccccn12 [Trazodone hydrochloride]
- Glycogen (statistical significance of glycogen degradation) (primary astrocytes [3]): ns

SMILES: COc1ccc(CN2CCN(c3ncnc4c3CCC4)CC2)cc1OC [T636-2007]
- Score_SNARF (primary astrocytes [1]): 0.8596
- Score_LACTATE (primary astrocytes [2]): 0.9841
